This is an account of results in patent publication US4487932A, “2,6-Dimethyl-3,5-bis-(1-adamantylhydr oxycarbonyl)-4-(2-difluoromethoxyphenyl)-1,4-dihydropyridine” (Institut Organicheskogo Sinteza Akademii Nauk Latviiskoi, priority 1983, dated 1984).

The test system of series [1] is myocardial ischemia (partial occlusion of the coronary artery). Kind of series: rise of ST segment (epicardiac ECG) in partial occlusion of the coronary artery with superposition of a high artificial rhythm. Format: in vivo, cats and dogs.
For series [2], the system named is systolic arterial pressure. The conditions noted are these: for lowering of the systolic arterial pressure: 1 hour after peroral administration; for lowering of the systolic arterial pressure / lowering of the arterial pressure: present compound 10 mg/kg; for lowering of the arterial pressure: in 5 hours after peroral administration.
A further series deals with white mice. Kind of series: in vivo. From the text: (§1) The studies of acute toxicity established the present compound to be low-toxic.
(§2) Acute toxicity of investigated compounds for
(§3) white mice upon intraperitoneal administration

Series [3] deals with myocardial ischemia (complete occlusion of the coronary artery). The series can be described thus: ischemic change in the heart in complete occlusion of the coronary artery. It counts as in vivo, dogs.
Series [4] concerns arrhythmia caused by barium chloride. The series can be described thus: barium chloride arrhythmia in rabbits. Format: in vivo.
The next series in a line: stability in storage. It counts as physicochemical. The conditions noted are these: conventional conditions.
In series [5] the test system is arrhythmia and cardiac arrest caused by calcium chloride. Kind of series: calcium chloride model of arrhythmia in white mice. It counts as in vivo.
Series [6] concerns venous blood outflowing from the coronary sinus of the heart. Kind of series: content of oxygen in venous blood outflowing from the coronary sinus; minute volume of the heart. It counts as in vivo, cats. The conditions noted are these: 0.2 to 3 mg/kg.
The test system of another series is arterial pressure. Kind of series: arterial pressure in rats of the line SHR, daily peroral administration during 10 days. Format: in vivo. As to the method:
The application of the present compound with daily peroral administration to rats of the line SHR in the dose of 20 mg/kg during 10 days causes lowering of the arterial pressure by 30-60 mm Hg during 24 hours. […] After the administration of the present compound was discontinued, the systolic arterial pressure gradually rose and reached the control group value in 3 days.

In a further series the test system is aconitic arrhythmia. The series can be described thus: aconitic model of arrhythmia in albino rats. Format: in vivo. The conditions noted are these: peroral and intravenous administration.
The next series in a line: in vivo. The conditions noted are these: mouse, in vivo, ip.
Text: as §1, §2, §3

The next series can be described thus: solubility. Format: physicochemical. The conditions noted are these: ethyl alcohol, chloroform, and other organic solvents and oils.
For series [7], the system named is coronary circulation / cardiovascular system. The note with it: for Duration: increase of coronary blood flow. An excerpt: The action of 2,6-dimethyl-3,5-bis-(1-adamantylhydroxycarbonyl)-4-(2-difluoromethoxyphenyl)-1,4-dihydropyridine on the cardiovascular system was investigated in experiments with cats, rats, and mice.
Where [8] appears, read: white mice, intraperitoneal, present compound = 1.
Setting [9] is: preliminary peroral, 2 to 10 mg/kg, barium chloride 4 mg/kg intravenously.
The mark [10] stands for this setting: narcotized cats, dose 0.05 mg/kg.
Where [11] appears, read: narcotized cats, dose 0.50 mg/kg.
Setting [12] is: narcotized cats, dose 2.00 mg/kg.

Entries after “also recorded” stand apart in the source; their conditions may differ. Read-outs that look alike come from different tables or passages of the source.

`COC(=O)C1=C(C)NC(C)=C(C(=O)OC)C1c1ccccc1[N+](=O)[O-]` [Niphedipine, 2,6-dimethyl-4-o-nitrophenyl-3,5-dimethoxycarbonyl-1,4-dihydropyridine, reference compound]: in series [1] (intravenous, 0.01 to 0.05 mg/kg, partial occlusion + high artificial rhythm), the “prevention of the rise of the ST segment” value was “only in an insignificant prevention of the rise of the ST segment”. Further, in [2], the “lowering of the systolic arterial pressure” value was determined as 51.7 mm Hg and the “lowering of the arterial pressure” value is 14 mm Hg.

Compound `CCN(CC)CCNC(=O)c1ccc(N)cc1` [Novocainamide (procainamide), reference compound] yielded a Relative toxicity with white mice (mouse, in vivo, ip) of 28.9.

In turn, `COc1ccc(Cc2nccc3cc(OC)c(OC)cc23)cc1OC` [Papaverine, reference compound] showed a Relative toxicity in the series on white mice (setting [8]) of 92.3.

What is called LD50 is the dose at which mortality reaches 50%. In the case of `CC1=C(C(=O)OC23CC4CC(CC(C4)C2)C3)C(c2ccccc2OC(F)F)C(C(=O)OC23CC4CC(CC(C4)C2)C3)=C(C)N1` (stereo not shown) [Present compound, 2,6-dimethyl-3,5-bis-(1-adamantylhydroxycarbonyl)-4-(2-difluoromethoxyphenyl)-1,4-dihydropyridine], the myocardial ischemia result in [3] (complete occlusion and also partial occlusion with high artificial rhythm, cats and dogs) was “diminishes myocardial ischemia”. In series [3] (dogs, preliminary administration, 0.5 to 2 mg/kg, complete occlusion), the “ischemic change in the heart” value is reported as “considerably diminished the ischemic change in the heart”. In series [4], the “prophylactic and therapeutic effect on barium arrhythmia” value was “prophylactic and therapeutic effect”. Further, in [4] (setting [9]), the alleviation of arrhythmia entry is “considerably alleviates arrhythmia” and the shortening of arrhythmia is listed as 2-5 times. The stability in storage entry in the series “stability in storage” is “stable when stored under conventional conditions”. In series [5] (calcium model of arrhythmia), the “antiarrhythmic activity compared with novocainamide (procainamide) and quinidine” value is “in smaller doses, and in a more pronounced manner; also recorded: exceeds that of novocainamide (procainamide) and quinidine”. In addition, in [5] (peroral, 1 to 5 mg/kg, calcium chloride intravenous), the “prevention of arrhythmia and cardiac arrest” value was “prevents the appearance of arrhythmia and cardiac arrest”. Besides, the “minute volume of the heart” value in [6] is listed as “somewhat increases”. Further, in series [6] (cats), the “content of oxygen in venous blood outflowing from the coronary sinus” value is on record as “increases the content of oxygen in venous blood; also recorded: increases the content of oxygen in the venous blood”. Besides, the “time for systolic arterial pressure to reach the control group value after discontinuation” value with arterial pressure (after daily peroral 20 mg/kg during 10 days) was 3 days. In the series on arterial pressure (daily peroral 20 mg/kg during 10 days), the pulse frequency result is listed as “No increase of the pulse frequency was observed”. In the series on arterial pressure (daily peroral 20 mg/kg during 10 days, during 24 hours), the “lowering of the arterial pressure” value is recorded as 30-60 mm Hg. Besides, in the series with aconitic arrhythmia, the “prophylactic and therapeutic activity on aconitic arrhythmia” value was “considerable prophylactic and therapeutic activity; also recorded: prophylactic and therapeutic effect”. For the same compound, the Relative toxicity in the series on white mice (mouse, in vivo, ip) is on record as 1. Besides, in the series with white mice (white mice, intraperitoneal), the 50% lethal dose (LD50) is recorded as 8400(6885.2-10248) mg/kg, the “toxicity relative to niphedipine” value is recorded as 1/44 and the “toxicity relative to quinidine” value is 1/53. Further, in the series “in vivo”, the median lethal dose (LD50) turned out to be 8400 mg/kg. For the same compound, in the series “solubility”, the solubility result was “readily soluble in ethyl alcohol, chloroform, and other organic solvents and oils”. For the same compound, the “effectiveness by ECG data (epicardium lead) compared with niphedipine and nitroglycerine” value in series [1] (experiments with cats and dogs) is “more effective than niphedipine and nitroglycerine”. In series [1] (intravenous 0.3 to 2 mg/kg vs nitroglycerine 0.05 mg/kg), the “effect compared with nitroglycerine” value is “almost two times more durative and more pronounced than of nitroglycerine”. In series [1] (preliminary intravenous, 0.3 to 2 mg/kg, partial occlusion + high artificial rhythm), the “rise of the ST segment on epicardiac leads of the ECG” value is “considerably diminishes, and in some cases even completely precludes a rise of the ST segment”. In [2], the “lowering of the systolic arterial pressure” value is listed as 31.5 mm Hg and the “lowering of the arterial pressure” value is on record as 8.6 mm Hg. Moreover, the “lowering of arterial pressure compared with niphedipine” value in series [2] (peroral 10 mg/kg) is recorded as “less pronounced than the action of niphedipine”. Also, in [7] (0.005 to 3 mg/kg), the “effect on arterial pressure, systemic venous pressure and aortal blood flow” value is recorded as “does not cause sharp drop of the arterial pressure, noticeable increase of the systemic venous pressure, or diminution of the aortal blood flow”. In addition, the “undesirable effects (sharp drop of arterial pressure, diminishing of arterial/aortal blood flow, increase of systemic venous pressure)” value in series [7] (0.05 to 3 mg/kg) was “causing no undesirable effects; also recorded: without causing such undesirable effects as sharp drop of the arterial pressure or pronounced diminishing of the aortal blood flow”. For the same compound, the “duration of action compared with niphedipine” value in series [7] (equiactive doses) is listed as “twice as durative”. The “rising of the systemic venous pressure” value in series [7] (large doses, intravenous administration) is given as “does not bring about rising of the systemic venous pressure”. Moreover, in series [7] (narcotized cats), the coronarodilating action result is “pronounced coronarodilating action” and the “coronarodilating activity compared with niphedipine” value is “somewhat inferior to niphedipine in activity”. In [7] (setting [10]), the “Change of aortal blood flow” value is listed as “+5%”, the “Increase of space velocity of coronary blood flow” value (shortened to “Increase … of coronary blood flow”) came out at 10%, the “Lowering of arterial pressure” value is given as 0% and the Duration turned out to be 25 min. In series [7] (setting [11]), the “Change of aortal blood flow” value is “+12%”, the “Change of systemic venous pressure” value is reported as -10%, the “Increase … of coronary blood flow” value is recorded as 60% and the “Lowering of arterial pressure” value came out at 5%. In addition, the Duration in series [7] (setting [11]) was 50 min. In addition, in series [7] (setting [12]), the “Change of aortal blood flow” value is on record as “+20%”, the “Change of systemic venous pressure” value is “+8%”, the “Increase … of coronary blood flow” value worked out at 120% and the “Lowering of arterial pressure” value was determined as 20%. The compound also registered a Duration in series [7] (setting [12]) of 90 min.

`C=C[C@H]1C[N@@]2CC[C@H]1C[C@@H]2[C@@H](O)c1ccnc2ccc(OC)cc12` [Quinidine, reference compound] returned a Relative toxicity in the series with white mice (setting [8]) of 53.8.
